Measured values published in patent US8859653B2, “Rubber-steel cord composite” (Bridgestone Corporation, priority 2009, dated 2014).

assay: octanol/water partition coefficient (log P) by high performance liquid chromatography according to JIS Z 7260-117 (2006); assay type: physicochemical
From the text: The combination which is the best mode described above can be confirmed from a numerical value of an octanol/water partition coefficient (log Pow, hereinafter abbreviated as “log P”) which is one of simple measures for evaluating a condensation property of chemicals. In the present invention, the smaller the value of log P is, the better the balance between the vulcanization speed, securing of the adhesion performance and the accumulativeness in human bodies is.
In the present invention (including examples and the like described later), the octanol/water partition coefficient (log P) described above can be measured by a high performance liquid chromatography according to JIS Z 7260-117 (2006), and it is defined by the following equation: log P=log(┌Co┘/┌Cw┘)
Co: concentration of a test substance in a 1-octanol layer
Cw: concentration of a test substance in an aqueous layer
Also, the octanol/water partition coefficients (log P) of the respective vulcanization accelerators obtained (production examples 1 to 6) were measured by a high performance liquid chromatography according to JIS Z 7260-117 (2006). A high performance liquid chromatography manufactured by Shimadzu Corporation was used.

Structure (SMILES)	octanol/water partition coefficient (log P)
CCCN(Sc1nc2ccccc2s1)C(C)(C)C [N-n-propyl-N-t-butylbenzothiazole-2-sulpheneamide]	5.3
CC(C)N(Sc1nc2ccccc2s1)C(C)(C)C [N-i-propyl-N-t-butylbenzothiazole-2-sulpheneamide]	5.1
CCN(Sc1nc2ccccc2s1)C(C)(C)C [N-ethyl-N-t-butylbenzothiazole-2-sulpheneamide]	4.9
CN(Sc1nc2ccccc2s1)C(C)(C)C [N-methyl-N-t-butylbenzothiazole-2-sulpheneamide]	4.5
CCCCN(Sc1nc2ccccc2s1)C(C)(C)C [N-n-butyl-N-t-butylbenzothiazole-2-sulpheneamide]	5.8
